Results on four molecules are retold here after US5153183A, “Methylenediphosphonic acid compounds and methods of use for the treatment of rheumatism and osteophorosis” (Toray Industries, Inc., priority 1989, dated 1992).

One data set concerns SD rats. The experiment in a line: Acute toxicity test. It counts as in vivo, rat. Particulars: 14 days, 20160 min. On the procedure:
(§1) Using female and male SD rats (5-week age), 6 rats per group, and a 10% aqueous solution of gum arabic for oral administration, and distilled water for intravenous administration as a solvent for the compound to be tested, mortality, during 14 days after administration were recorded, and the LD50 values were calculated according to the Miller and Tainter Method (1944).

A further data set in a line: Acute toxicity test. It counts as in vivo, rat. The note with it: rat, in vivo, iv, 14 days, distilled water. On the procedure:
as §1

Another data set has as its system osteoclasts. The experiment in a line: Bone resorption inhibition test. Particulars: Mus musculus, Osteoclast, 120 h, active-type vitamin D3 (10^-10 M), ivory lamella, 5 days, read-out: Bone resorption inhibiting rate against control group. It counts as cell-based. How it is done:
With an osteoclast fraction prepared from the hindleg of a mouse placed on a lamella of ivory and stimulated by active-type vitamin D3 there is an resorption lacuna produced on the surface of ivory due to the absorption activity of the osteoclast. Using this absorption model of the bone, the bone resorption inhibiting effect of the compound of the invention was examined according to the following procedure.
5 μl of a suspension of osteoclasts prepared from the hindleg of a mouse was placed on a lamella of ivory and cultured in 500 μl of a 5% calf serum α-added MEM medium containing active-type vitamin D3 (10^-10 M) and the compound of the present invention ([…] or 10^-5 M) for 5 days. After culturing, the osteoclasts were removed from the ivory lamella, and the ivory was stained. The total area of resorption lacunae which became obvious by staining was calculated through image analysis. The bone absorption inhibiting rate was calculated by the formula [formula]

The next data set has as its system Lewis female rat. In words: Adjuvant arthritis test. It counts as in vivo. Particulars: 50 mg/kg oral daily, 8th to 21st day after adjuvant injection, 6 cases; for Edema inhibiting rate against control group, +14 day, Left / Edema inhibiting rate against control group, +21 day, Left: left hindpaw (injected); for Edema inhibiting rate against control group, +14 day, Left / Edema inhibiting rate against control group, +14 day, Right: day 14; for Edema inhibiting rate against control group, +21 day, Left / Edema inhibiting rate against control group, +21 day, Right: day 21; for Edema inhibiting rate against control group, +14 day, Right / Edema inhibiting rate against control group, +21 day, Right: right hindpaw; for Zonal bone damage inhibiting rate against control group, +22 day: soft X-ray of hindlegs, day 22. How it is done: When a Mycobacterium butyricum adjuvant is injected into a rat, there occurs polyarthritis similar to human rheumatoid arthritis. Using such an adjuvant arthritis model, the anti-inflammatory and anti-rheumatic effects of the compounds of the present invention and the reference were examined according to the following procedure.
0.1 mg of dry dead Mycobacterium butyricum was suspended in 0.1 ml of liquid paraffin, and the suspension was injected into the skin of the sole of the left hindpaw of a Lewis female rat, 7-weeks old. The compounds obtained in Examples 2 and 4 and Reference were respectively dissolved in sterilized distilled water and orally administered at a dose of 50 mg per kg of body weight every day for two weeks from the 8th to 21st day after adjuvant injection. The volumes of the left and right hindpaws were measured. Edema density was calculated according to the formula [formula] and the Edema inhibiting rate was obtained according to the formula [formula] with the results shown in Table 1.
On the 22nd day, the rats were sacrificed, and soft X-ray photos of the left and right hind-legs were taken, and, based on the soft X-ray photos, the extent of bone damage at 5 zones on the left and right hindlegs was evaluated in points of 5 ranks, and the total points were taken as the zonal bone damage index. Further, the zonal bone damage inhibiting rate was calculated according to the formula [formula] with the results shown in Table 1.
The results thus obtained had ** noted for those which were significant according to the Student t-test and Tukey multiple comparison method with a perilous rate p<0.02 against the control group having only the sterilized distilled water administered and * noted for those which were significant with a perilous rate p<0.05.

[1] abbreviates: Oral, Female SD rats, 10% gum arabic.
[2] abbreviates: Oral, Male SD rats, 10% gum arabic.

On to `CC(C)(C)c1cc(SC(P(=O)(O)O)P(=O)(O)O)cc(C(C)(C)C)c1O` [Example 2, (3,5-di-t-butyl-4-hydroxyphenylthio)methylenediphosphonic acid], for which, in the data set with SD rats (setting [1]), the “LD50 Values” is 616 mg/kg. Moreover, the “LD50 Values” in the data set on SD rats (setting [2]) came out at 652 mg/kg. In “Acute toxicity test” (Female SD rats), the LD50 at 336 h was 29.8 mg/kg. In the data set “Acute toxicity test” (Male SD rats), the LD50 at 336 h was found to be 45.2 mg/kg. Besides, the inhibition at 10 µM in the data set on osteoclasts (10^-5 M) stood at 86%. Further, the inhibition at 1 µM with osteoclasts (10^-6 M) is 48%. Moreover, in the data set with Lewis female rat, the “Edema inhibiting rate against control group, +14 day, Left” value (“Edema inhibiting rate … +14 day, Left” below) stood at 29.2%; the “Edema inhibiting rate against control group, +21 day, Left” value (shortened to “Edema inhibiting rate … +21 day, Left”) amounted to 33.8%; the “Edema inhibiting rate against control group, +14 day, Right” value (“Edema inhibiting rate … +14 day, Right” for short) was found to be 39.7%; the “Edema inhibiting rate against control group, +21 day, Right” value (“Edema inhibiting rate … +21 day, Right” for short) amounted to 30.4%. Further, the “Zonal bone damage inhibiting rate against control group, +22 day” value (“Zonal bone damage inhibiting rate” for short) in the data set with Lewis female rat is given as 32.5%.

Take `CC(C)(C)c1cc(SC(P(=O)(O)O)P(=O)(O)O)cc(C(C)(C)C)c1O` [Example 8, Disodium(3,5-di-t-butyl-4-hydroxyphenylthio)methylenediphosphonate]: the “LD50 Values” in the data set on SD rats (Intravenous, Female SD rats, distilled water) was found to be 35.7 mg/kg; in the data set on SD rats (Intravenous, Male SD rats, distilled water) it was 48.2 mg/kg; in the data set on SD rats (setting [1]) it was 1770 mg/kg; in the data set with SD rats (setting [2]), 1871 mg/kg.

On to `O=P(O)(O)C(Cc1ccc(O)cc1)P(=O)(O)O` [Reference compound, 2-(4-hydroxyphenyl)ethylidene-1,1-diphosphonic acid, reference compound], for which, in the data set on Lewis female rat, the “Edema inhibiting rate … +14 day, Left” value is reported as 4.4%; the “Edema inhibiting rate … +21 day, Left” value was determined as 0.9%; the “Edema inhibiting rate … +14 day, Right” value was 7.9%; the “Edema inhibiting rate … +21 day, Right” value worked out at 6.9%. Also, the “Zonal bone damage inhibiting rate” value with Lewis female rat worked out at 0%.

For `CC(C)(C)c1cc(CC(P(=O)(O)O)P(=O)(O)O)cc(C(C)(C)C)c1O` [Example 4, 2-(3,5-di-t-butyl-4-hydroxyphenyl)ethylidene-1,1-di-phosphonic acid], in the data set on Lewis female rat, the “Edema inhibiting rate … +14 day, Left” value amounted to 2.6%; the “Edema inhibiting rate … +21 day, Left” value is 9.7%; the “Edema inhibiting rate … +14 day, Right” value came to 31.6%; the “Edema inhibiting rate … +21 day, Right” value was 21.6%. Further, the “Zonal bone damage inhibiting rate” value in the data set on Lewis female rat amounted to 29.4%.

Usually LD50 stands for the dose expected to kill half of the subjects tested. High values mean lower toxicity, low ones greater toxicity.
